Activity calls are given as the source filed them. The calls are words filed in the database; no cut-off is given here.
Columns and labels:
Homo sapiens [1] = species on record: Homo sapiens; assay: Inhibition of polymerization of alpha-1-antitrypsin Z mutant at 10 uM
Mus musculus = species on record: Mus musculus; assay: (§1) Reduction in intracellular accumulation of alpha-1 antitrypsin Z mutant in mouse Hepa1a cells at 100 uM after 16 hrs; type: functional
Homo sapiens [2] = species on record: Homo sapiens; assay: Inhibition of polymerization of alpha-1-antitrypsin Z mutant at 5 uM
Homo sapiens [3] = species on record: Homo sapiens; assay: Inhibition of polymerization of alpha-1-antitrypsin Z mutant at 50 uM
Homo sapiens [4] = species on record: Homo sapiens; assay: Inhibition of polymerization of alpha-1-antitrypsin Z mutant
[5] = as §1; type: functional; set-up: scale not given: the % may be the effect or the level left
[6] = biological target: T1, Alpha-1-antichymotrypsin (Homo sapiens) (UniProt P01011); assay: Inhibition of polymerization of alpha-1 antichymotrypsin at 200 uM
T1 sequence (whole entry): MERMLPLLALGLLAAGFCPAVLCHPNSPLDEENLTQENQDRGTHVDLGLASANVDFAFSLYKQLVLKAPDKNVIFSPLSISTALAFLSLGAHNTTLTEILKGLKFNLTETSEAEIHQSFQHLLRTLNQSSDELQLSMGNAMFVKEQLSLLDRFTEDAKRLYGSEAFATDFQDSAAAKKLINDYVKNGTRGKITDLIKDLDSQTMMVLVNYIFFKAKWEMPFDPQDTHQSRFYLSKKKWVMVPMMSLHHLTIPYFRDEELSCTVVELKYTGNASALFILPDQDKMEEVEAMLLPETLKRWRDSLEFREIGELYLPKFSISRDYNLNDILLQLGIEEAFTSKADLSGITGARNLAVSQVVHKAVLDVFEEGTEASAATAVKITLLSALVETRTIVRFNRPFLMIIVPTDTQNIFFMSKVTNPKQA

Homo sapiens [7] = species on record: Homo sapiens; assay: Inhibition of polymerization of alpha-1-antitrypsin Z mutant at 20 uM

With `Oc1ccc(-c2n[nH]cc2-c2ccn(-c3ccccc3)n2)c(O)c1O` the Activity (Homo sapiens [1]) was “Active”.

For `Cc1ccc(S(=O)(=O)Nc2cc(C)c(O)c(Sc3nnc(C)[nH]3)c2)cc1`, the Activity (Homo sapiens [1]) was “Active”, the Activity (Mus musculus) was “inactive” and the Activity (Homo sapiens [2]) was “Active”.

For `Cc1cc(NS(=O)(=O)c2ccccc2)cc(C)c1O`, the Activity (Homo sapiens [3]) was “Active”.

With `COc1c(C)cc(NS(=O)(=O)c2ccc(SC)cc2)cc1C` the Activity (Mus musculus) was “inactive”.

In the case of `Oc1ccc(-c2n[nH]cc2-c2cnn(-c3ccccc3)c2)c(O)c1O`, the Activity (Homo sapiens [1]) is reported as “Active”.

For `O=C1c2ccc(O)cc2OC(c2ccc(O)c(O)c2O)C1O` (configuration not stated), the Activity (Homo sapiens [4]) was “Active”.

For `Cc1cc(NS(=O)(=O)c2ccccc2)cc(Cl)c1O`, the Activity (Homo sapiens [1]) was “Active”.

For `Cc1cc(NS(=O)(=O)c2cccc([N+](=O)[O-])c2)cc(C)c1O`, the Activity (Homo sapiens [1]) was “Active”.

In the case of `NS(=O)(=O)c1ccc(Nc2nc(-c3ccc(O)cc3O)cs2)cc1`, the Activity (Homo sapiens [4]) is reported as “Active”.

With `Cc1cc(NS(=O)(=O)c2ccccc2)cc(Br)c1O` the Activity (Homo sapiens [1]) was “Active” and the Activity (Homo sapiens [2]) was “Active”.

With `Cc1ccc(S(=O)(=O)Nc2cc(C)c(O)c(Sc3nnc[nH]3)c2)cc1` the Activity (Homo sapiens [1]) was “Active” and the Activity (Homo sapiens [2]) was “Active”.

For `Cc1cc(S(=O)(=O)Nc2cc(C)c(O)c(C)c2)c(C)s1`, the Activity (Homo sapiens [3]) was “Active”, the Activity [5] was 70% and the Activity [6] was “inactive”. For the same molecule, the Activity (Homo sapiens [7]) was “Active”.

With `CSc1ccc(C(Nc2ccccn2)c2oc(CO)cc(=O)c2O)cc1` (configuration not stated) the Activity (Homo sapiens [4]) was “Active”.

For `Cc1cc(NS(=O)(=O)c2ccc([N+](=O)[O-])cc2)cc(C)c1O`, the Activity (Homo sapiens [1]) was “Active”.

For `COc1ccccc1Nc1ccc2c(O)cc(S(=O)(=O)O)cc2c1`, the Activity (Homo sapiens [4]) was “Active”.

Reference: ChEMBL document CHEMBL1137578, “Small molecules block the polymerization of Z alpha1-antitrypsin and increase the clearance of intracellular aggregates” (2007)
